Active and inactive are the calls of the source.
Key:
Format in all cases: functional, organism-based
Mus musculus [1] = test: Suppression of lung injury in mouse model of influenza A virus H1N1 infection-induced lung injury assessed as decrease in lung elastance at 30 ug/ml dosed via drinking water
Mus musculus [2] = test: Suppression of lung injury in mouse model of influenza A virus H1N1 infection-induced lung injury assessed as increase in lung compliance at 30 ug/ml dosed via drinking water
Mus musculus [3] = test: Suppression of lung injury in mouse model of influenza A virus H1N1 infection-induced lung injury assessed as increase in mouse survival at 30 ug/ml dosed via drinking water
Mus musculus [4] = test: Suppression of lung injury in mouse model of influenza A virus H1N1 infection-induced lung injury assessed as decrease in lavage cell counts at 30 ug/ml dosed via drinking water
Mus musculus [5] = test: Suppression of lung injury in mouse model of influenza A virus H1N1 infection-induced lung injury assessed as decrease in cell infiltration at 30 ug/ml dosed via drinking water by H and E staining based assay
Mus musculus [6] = test: Suppression of lung injury in mouse model of Pseudomonas aeruginosa PA103 infection-induced lung injury assessed as improve in lung volume at 100 ug, ip pre-treated before infection
Mus musculus [7] = test: Suppression of lung injury in mouse model of Pseudomonas aeruginosa PA103 infection-induced lung injury assessed as reduction in lung elastance at 100 ug, ip pre-treated before infection
Mus musculus [8] = test: Suppression of lung injury in mouse model of Pseudomonas aeruginosa PA103 infection-induced lung injury assessed as reduction in lavage TNFalpha levels at 100 ug, ip pre-treated before infection
Mus musculus [9] = test: Suppression of lung injury in mouse model of Pseudomonas aeruginosa PA103 infection-induced lung injury assessed as reduction in cell infiltration at 100 ug, ip pre-treated before infection by H and E staining based assay
Mus musculus [10] = test: Suppression of lung injury in mouse model of Pseudomonas aeruginosa PA103 infection-induced lung injury assessed as reduction in lavage IL6 levels at 100 ug, ip pre-treated before infection
Mus musculus [11] = test: Suppression of lung injury in mouse model of influenza A virus H1N1 infection-induced lung injury assessed as decrease in lung edema at 30 ug/ml dosed via drinking water
Mus musculus [12] = test: Suppression of lung injury in mouse model of Pseudomonas aeruginosa PA103 infection-induced lung injury assessed as reduction in lavage IL-1beta levels at 100 ug, ip pre-treated before infection
Mus musculus [13] = test: Suppression of lung injury in mouse model of Pseudomonas aeruginosa PA103 infection-induced lung injury assessed as reduction in lavage protein concentration at 100 ug, ip pre-treated before infection
Mus musculus [14] = test: Suppression of lung injury in mouse model of influenza A virus H1N1 infection-induced lung injury assessed as decrease in lavage protein concentration at 30 ug/ml dosed via drinking water
Mus musculus [15] = test: Suppression of lung injury in mouse model of Pseudomonas aeruginosa PA103 infection-induced lung injury assessed as reduction in lavage cell counts at 100 ug, ip pre-treated before infection
Mus musculus [16] = test: Suppression of lung injury in mouse model of Pseudomonas aeruginosa PA103 infection-induced lung injury assessed as reduction in lung resistance at 100 ug, ip pre-treated before infection
Mus musculus [17] = test: Suppression of lung injury in mouse model of Pseudomonas aeruginosa PA103 infection-induced lung injury assessed as increase in compliance at 100 ug, ip pre-treated before infection
Mus musculus [18] = test: Antiinflammatory activity in C57/BL mouse model of lung transplant acute rejection transplanted with BALB/C mouse left lung assessed as amelioration of neutrophilia infiltration at 5 mg/kg/day, ip for 2 days followed by dosing at 5 mg/kg/day via drinking water for 5 days
Mus musculus [19] = test: Suppression of smoke-induced chronic lung inflammation in mouse assessed as reduction in lavage IL12 levels at 100 ug, ip administered as single dose injected after 5 weeks cigarette smoke exposure
Mus musculus [20] = test: Suppression of IMQ-induced psoriasis in BALB/c mouse model of skin inflammation assessed as reduction in spleen weight at 1 or 5 mg/kg dosed via drinking water on daily basis
Mus musculus [21] = test: Suppression of IMQ-induced psoriasis in BALB/c mouse model of skin inflammation assessed as effect on gross appearance at 1 or 5 mg/kg applied topically on daily basis
Mus musculus [22] = test: Suppression of smoke-induced chronic lung inflammation in mouse assessed as reduction in lavage protein concentration at 100 ug, ip administered as single dose injected after 5 weeks cigarette smoke exposure
Mus musculus [23] = test: Suppression of lung injury in mouse model of Pseudomonas aeruginosa PA103 infection-induced pneumonia assessed as reduction in lavage TNFalpha levels at 30 or 150 ug, ip pre-treated before infection
Mus musculus [24] = test: Suppression of lung injury in mouse model of Pseudomonas aeruginosa PA103 infection-induced pneumonia assessed as reduction in lavage protein concentration at 30 or 150 ug, ip pre-treated before infection
Mus musculus [25] = test: Suppression of IMQ-induced psoriasis in BALB/c mouse model of skin inflammation assessed as reduction in spleen weight at 1 or 5 mg/kg applied topically on daily basis
Mus musculus [26] = test: Antiinflammatory activity in C57/BL mouse model of lung transplant acute rejection transplanted with BALB/C mouse left lung assessed as reduction in cell infiltration in lung at 5 mg/kg/day, ip for 2 days followed by dosing at 5 mg/kg/day via drinking water for 5 days
Mus musculus [27] = test: Suppression of lung injury in mouse model of Pseudomonas aeruginosa PA103 infection-induced pneumonia assessed as reduction in cell infiltration at 30 or 150 ug, ip pre-treated before infection by H and E staining based assay
Mus musculus [28] = test: Suppression of lung injury in mouse model of Pseudomonas aeruginosa PA103 infection-induced pneumonia assessed as reduction in lavage cell counts at 30 or 150 ug, ip pre-treated before infection
Mus musculus [29] = test: Suppression of smoke-induced chronic lung inflammation in mouse assessed as reduction in lavage IL-1beta levels at 100 ug, ip administered as single dose injected after 5 weeks cigarette smoke exposure
Mus musculus [30] = test: Suppression of IMQ-induced psoriasis in BALB/c mouse model of skin inflammation assessed as reduction in psoriasis index at 1 or 5 mg/kg dosed via drinking water on daily basis
Mus musculus [31] = test: Suppression of dexamethasone-induced muscle atrophy in C57BL mouse assessed as prevention of muscle wasting in TA muscle at 0.5 to 5 mg/kg/day dosed via drinking water by H and E staining based assay
Mus musculus [32] = test: Suppression of lung injury in mouse model of Pseudomonas aeruginosa PA103 infection-induced pneumonia assessed as reduction in lavage IL6 levels at 30 or 150 ug, ip pre-treated before infection
Mus musculus [33] = test: Suppression of dexamethasone-induced muscle atrophy in C57BL mouse assessed as reduction in TRAF6 protein in TA muscle at 0.5 to 5 mg/kg/day dosed via drinking water by immunoblotting analysis
Mus musculus [34] = test: Suppression of smoke-induced chronic lung inflammation in mouse assessed as reduction in lavage IL2 levels at 100 ug, ip administered as single dose injected after 5 weeks cigarette smoke exposure
Mus musculus [35] = test: Suppression of lung injury in mouse model of Pseudomonas aeruginosa PA103 infection-induced pneumonia assessed as reduction in lavage IL-1beta levels at 30 or 150 ug, ip pre-treated before infection
Mus musculus [36] = test: Suppression of IMQ-induced psoriasis in BALB/c mouse model of skin inflammation assessed as effect on gross appearance at 1 or 5 mg/kg dosed via drinking water on daily basis
Mus musculus [37] = test: Suppression of dexamethasone-induced muscle atrophy in C57BL mouse assessed as reduction in tibialis anterior muscle loss at 0.5 to 5 mg/kg/day dosed via drinking water
Mus musculus [38] = test: Suppression of IMQ-induced psoriasis in BALB/c mouse model of skin inflammation assessed as reduction in ear thickness at 1 or 5 mg/kg dosed via drinking water on daily basis
Mus musculus [39] = test: Suppression of IMQ-induced psoriasis in BALB/c mouse model of skin inflammation assessed as reduction in psoriasis index at 1 or 5 mg/kg applied topically on daily basis
Mus musculus [40] = test: Suppression of IMQ-induced psoriasis in BALB/c mouse model of skin inflammation assessed as reduction in ear thickness at 1 or 5 mg/kg applied topically on daily basis
Mus musculus [41] = test: Suppression of smoke-induced chronic lung inflammation in mouse assessed as reduction in lavage IL6 levels at 100 ug, ip administered as single dose injected after 5 weeks cigarette smoke exposure
Mus musculus [42] = test: Suppression of lung injury in mouse model of Pseudomonas aeruginosa PA103 infection-induced pneumonia assessed as reduction in neutrophil infiltration at 30 or 150 ug, ip pre-treated before infection by May-Grunwald and Geimsa staining based assay
Mus musculus [43] = test: Suppression of smoke-induced chronic lung inflammation in mouse assessed as reduction in lavage cell counts at 100 ug, ip administered as single dose injected after 5 weeks cigarette smoke exposure
Mus musculus [44] = test: Suppression of smoke-induced chronic lung inflammation in mouse assessed as reduction in lavage TNFalpha levels at 100 ug, ip administered as single dose injected after 5 weeks cigarette smoke exposure
Mus musculus [45] = test: Suppression of smoke-induced chronic lung inflammation in mouse assessed as reduction in lavage IFNgamma levels at 100 ug, ip administered as single dose injected after 5 weeks cigarette smoke exposure
Mus musculus [46] = test: Suppression of smoke-induced chronic lung inflammation in mouse assessed as reduction in lavage IL10 levels at 100 ug, ip administered as single dose injected after 5 weeks cigarette smoke exposure

Measured: Activity

c1ccc(-c2ccc(CNCCNCc3ccc(-c4ccccn4)cc3)cc2)nc1
active: Mus musculus [1] | Mus musculus [2] | Mus musculus [3] | Mus musculus [4] | Mus musculus [5] | Mus musculus [6] | Mus musculus [7] | Mus musculus [8] | Mus musculus [9] | Mus musculus [10] | Mus musculus [11] | Mus musculus [12] | Mus musculus [13] | Mus musculus [14] | Mus musculus [15] | Mus musculus [16] | Mus musculus [17]

c1cnc(-c2ccc(CNCCNCc3ccc(-c4ncccn4)cc3)cc2)nc1
not listed: Mus musculus [1] | Mus musculus [2] | Mus musculus [3] | Mus musculus [4] | Mus musculus [5] | Mus musculus [6] | Mus musculus [7] | Mus musculus [8] | Mus musculus [9] | Mus musculus [10] | Mus musculus [11] | Mus musculus [12] | Mus musculus [13] | Mus musculus [14] | Mus musculus [15] | Mus musculus [16] | Mus musculus [17]
active: all other assays above
